The values that follow come from paper PMC6479983, “Activity of Estafietin and Analogues on Trypanosoma cruzi and Leishmania braziliensis” (Molecules, 2019).

≈ marks a conversion by molar mass, not a printed value. Entries after “also recorded” stand apart in the source; their conditions may differ.

The test system of series [1] is L. braziliensis promastigotes. The experiment in a line: Leishmanicidal activity on L. braziliensis promastigotes ([3H] thymidine uptake assay). The note with it: for IC50: Leishmania braziliensis, 72 h, 0-50 µg/mL, [3H] thymidine uptake; for Selectivity Index Promastigotes L. braziliensis: Vero CC50 relative to promastigote IC50. The class given is cell-based, Leishmania braziliensis. As to the method: Figure 4 Leishmanicidal activity of estafietin (1) and estafietin derivatives (2–5) on L. braziliensis promastigotes. Parasites were cultured for 72 h in the presence of each compound (0–50 µg/mL). The inhibition of parasite growth was evaluated by a [^3H] thymidine uptake assay. The percentage of inhibition was calculated as 100 − [(cpm of treated parasites)/(cpm of untreated parasites)] × 100. Values represent mean ± SEM from three independent experiments carried out in triplicate. Each treatment was compared to controls: parasites incubated with culture medium only. * p < 0.05, ** p < 0.01 and *** p < 0.005. TEXT PRINTED IN THE PICTURE: Estafietin (1): IC50 (μg/mL): 1.0 | 11βH,13-dihydroestafietin (2): IC50 (μg/mL): 1.3 | α and β epoxyestafietin (3a and 3b): IC50 (μg/mL): 7.8 | 11βH,13-methoxyestafietin (4): IC50 (μg/mL): 48.7 | 11βH,13-cianoestafietin (5): IC50 (μg/mL): 51.8
The growth inhibition of Leishmania braziliensis promastigotes was evaluated by the (^3H) thymidine [(^3H)T] uptake assay. Parasites (5 × 10^6) were settled at a final volume of 150 µL in a flat-bottom 96-well microplate and cultured at 28 °C in either the absence or the increasing concentrations of the pure compounds (0–50 µg/mL). After 72 h, 1 µC of [^3H]T was added to each well, and cultures were incubated for 16 h. Counts per minute (cpm) of triplicate cultures were measured by an automated liquid scintillation counter (Packard, Downers Grove, IL, USA). The percentage of inhibition was calculated as {100 − [(cpm of treated parasites/cpm of untreated parasites) × 100]}. The compound concentration at which the parasite growth was inhibited by 50% (IC50) was determined. Amphotericin B was used as positive control.
(§1) Results are presented as means ± SEM. The GraphPad Prism 5.0 software (GraphPad Software Inc., San Diego, CA, USA) was employed to carry out calculations. To calculate IC50 and CC50 values, the percentages of inhibition were plotted against the drug concentration and fitted with a straight line determined by a linear regression (Sigma Plot 10 software, (Systat Software, San Jose, CA, USA). Results presented are representative of three to four independent experiments.

A further series concerns T. cruzi amastigotes. The experiment in a line: Inhibition of T. cruzi amastigote replication in Vero cells (β-galactosidase transfected parasites, CPRG). The class given is cell-based, Trypanosoma cruzi. The note with it: for IC50: infected Vero cells, 0-100 µg/mL, β-galactosidase/CPRG readout, read-out: IC50 against T. cruzi amastigotes (intracellular forms); for Selectivity Index Amastigotes T. cruzi: Vero CC50 relative to amastigote IC50. As to the method:
Figure 3 Inhibition of T. cruzi amastigotes replication by estafietin (1) and estafietin derivatives (2–5). Mammalian cells (5 × 10^3 cells/well) were seeded in 96-well plates and infected 24 h later with transfected trypomastigotes expressing β-galactosidase. After 24 h of co-culture, plates were washed and compounds were added at 0–100 µg/mL in 150 µL medium. On day 6 post-infection, the assays were developed by the addition of CPRG (100 mM) and Nonidet P-40 (1%). Plates were incubated for 6 h and the optical density was read at 570 nm. Infected untreated mammalian cells were used as 100% infection control. The percentage of inhibition was calculated as 100 − {[(Absorbance of treated infected cells)/(Absorbance of untreated infected cells)] × 100}. Symbols represent mean ± SEM. Each treatment was compared to controls: parasites incubated with culture medium only. * p < 0.05, ** p < 0.01 and *** p < 0.005. TEXT PRINTED IN THE PICTURE: Estafietin (1): IC50 (μg/mL): 28.8 | 11βH,13-dihydroestafietin (2): IC50 (μg/mL): 83.0 | α and β epoxyestafietin (3a and 3b): IC50 (μg/mL): 2.0 | 11βH,13-methoxyestafietin (4): IC50 (μg/mL): 30.5 | 11βH,13-cianoestafietin (5): IC50 (μg/mL): 99.0
The effect of the compounds on intracellular forms of T. cruzi was assayed using β-galactosidase transfected parasites. Ninety-six well culture plates were seeded with nonphagocytic Vero cells at 5 × 10^3 per well in […] of culture medium and incubated for 24 h at 37 °C in a 5% CO2 atmosphere. Cells were then washed and infected with transfected bloodstream trypomastigotes expressing β-galactosidase at a parasite/cell ratio of 10:1. After […] of coculture, plates were washed twice with PBS to remove unbound parasites and each pure compound was added at different concentrations (0–100 µg/mL) in 150 µL of fresh complete RPMI medium without phenol red (Gibco, Rockville, MD, USA). Controls included infected untreated cells (100% infection control) and uninfected cells (0% infection control). The assay was developed by the addition of chlorophenolred-β-D-galactopyranoside (CPRG) (100 mM) and 1% Nonidet P40, 5 days later. Plates were incubated for 4–6 h at 37 °C and the absorbance was measured at 595 nm in a microplate reader (Bio-Rad Laboratories, Hercules, CA, USA). The percentage inhibition was calculated as 100 – {[(absorbance of treated infected cells)/(absorbance of untreated infected cells) × 100]} and the IC50 value was estimated. Benznidazole was used as positive control.
as §1

The subject of series [2] is T. cruzi bloodstream trypomastigotes. The experiment in a line: Trypanocidal activity on T. cruzi bloodstream trypomastigotes (counting of living parasites in Neubauer chamber). The class given is cell-based, Trypanosoma cruzi. The note with it: for IC50: Trypanosoma cruzi, 24 h incubation, 0-100 µg/mL, living parasites counted, read-out: IC50 against T. cruzi bloodstream trypomastigotes; for Selectivity Index Trypomastigotes T. cruzi: Vero CC50 relative to trypomastigote IC50; for activity against the infective form of T. cruzi compared with estafietin (in words): trypomastigotes, discussion statement. The protocol:
Figure 2 Trypanocidal activity of estafietin (1) and estafietin derivatives (2–5) against T. cruzi bloodstream trypomastigotes. Bloodstream trypomastigotes were assayed in duplicate in the presence of 0 to 100 µg/mL of estafietin (1), 11βH,13-dihydroestafietin (2), α- (3a) and β-epoxyestafietin (3b) (1:4 mixture), 11βH,13-methoxyestafietin (4) and 11βH,13-cianoestafietin (5). Cultures were done in 96-well plates with 1.5 × 10^6 parasites/mL over 24 h. The living parasites were then counted in a Neubauer chamber. Symbols represent mean ± SEM. Each treatment was compared to controls: parasites incubated with culture medium only. * p < 0.05, ** p < 0.01 and *** p < 0.005. TEXT PRINTED IN THE PICTURE: Estafietin (1): IC50 (μg/mL): 25.2 | 11βH,13-dihydroestafietin (2): IC50 (μg/mL): 97.1 | α and β epoxyestafietin (3a and 3b): IC50 (μg/mL): 18.7 | 11βH,13-methoxyestafietin (4): IC50 (μg/mL): >100 | 1βH,13-cianoestafietin (5): IC50 (μg/mL): 78.1
The trypanocidal effect of the purified compounds was tested on transfected bloodstream trypomastigotes (Tulhauen strain). Briefly, mouse blood containing trypomastigotes was diluted in complete LIT medium to adjust the parasite concentration to 2 × 10^6/mL. Parasites were seeded in duplicate in a 96-well microplate in the presence of each compound (0–100 µg/mL) and controls and incubated at 4 °C for 24 h. The number of remaining living parasites in each sample was determined in 5 µL of cell suspension diluted 1/5 in lysis buffer (0.75% NH4Cl, 0.2% Tris, pH 7.2) and counted in a Neubauer chamber.
as §1

For the next series, the system named is Vero cells. The experiment in a line: Host cell toxicity on Vero cells by the MTT method. The format is cell-based. The protocol:
(§2) The cytotoxicity of the natural and synthetic compounds was evaluated on Vero cells by the MTT method. The 50% cytotoxic concentration (CC50) of each compound was determined. Selectivity indexes (SI) were calculated for T. cruzi trypomastigotes and amastigotes and for L. braziliensis promastigotes (Table 1).
(§3) Vero cells were employed to determine the viability by the 3-(4,5-dimethylthiazol-2yl)-2,5-diphenyltetrazolium bromide (MTT) method. Cells (5 × 10^5) were settled at a final volume of […] in a flat-bottom 96-well microplate and cultured at 37 °C in a 5% CO2 atmosphere in either the absence or the presence of increasing concentrations of the compounds (5–500 µg/mL). After 24 h, MTT was added at a final concentration of 1.5 mg/mL. Plates were incubated for 2 h at 37 °C. The purple formazan crystals formed were dissolved with […] of ethanol and the absorbance was read at 570 nm in a microplate reader. Results were calculated as the ratio between the optical density in the presence and absence of the compound multiplied by 100.
as §1
In general terms: Formazan colour is commonly taken as a measure of viable cells.

Series [3] can be described thus: Host cell toxicity on Vero cells by the MTT method. The class given is cell-based. The note with it: African green monkey, 24 h, 5-500 µg/mL, read-out: CC50 (50% cytotoxic concentration). The protocol: as §2, §3, §1
The next series concerns T. cruzi epimastigotes. More on the design: method as in PMID 23815577. The settings on record: series of 15 STLs; cited from earlier work.

With `C[C@@H]1[C@H](O)[C@@H](C)/C=C/C=C/C=C/C=C/C=C/C=C/C=C/[C@H](O[C@@H]2O[C@H](C)[C@@H](O)[C@H](N)[C@@H]2O)C[C@@H]2O[C@](O)(C[C@@H](O)C[C@@H](O)[C@H](O)CC[C@@H](O)C[C@@H](O)CC(=O)O[C@H]1C)C[C@H](O)[C@H]2C(=O)O` [Amphotericin B, reference compound], in series [1], the IC50 – broadly, the concentration that inhibits the measured activity by half – was 0.48 µg/mL (≈ 0.519 µM).
Turning to `O=C(Cn1ccnc1[N+](=O)[O-])NCc1ccccc1` [Benznidazole, reference compound], the IC50 stood at 1.8 µg/mL (≈ 6.92 µM) in the series on T. cruzi amastigotes (Trypanosoma cruzi) and 11.6 µg/mL (≈ 44.6 µM) in series [2].
In the case of `C=C1CC[C@H]2C(=C)C(=O)O[C@@H]2C2C1C[C@H]1O[C@@]21C` (stereo partly shown) [Compound 1, estafietin], the values for the IC50 (with T. cruzi amastigotes (Trypanosoma cruzi); in series [1]; in series [2]) were 28.8 µg/mL (≈ 117 µM), 1 µg/mL (≈ 4.06 µM) and 25.2 µg/mL (≈ 102 µM), respectively. Moreover, the “Selectivity Index Amastigotes T. cruzi” value in the series on T. cruzi amastigotes is 8.3. Moreover, the “Selectivity Index Promastigotes L. braziliensis” value in series [1] came out at 240.4. Further, the “toxicity on mammalian cells (in words)” value in the series on Vero cells is reported as “low toxicity”. The CC50 at 24 h in series [3] is 240 µg/mL (≈ 976 µM). Further, the “Selectivity Index Trypomastigotes T. cruzi” value in series [2] amounted to 9.5. In addition, the “activity on T. cruzi epimastigotes (in words)” value in the series on T. cruzi epimastigotes was “significant activity”.
For `C=C1CCC2C(C)C(=O)OC2C2C1CC1OC12C` (stereo not shown) [Compound 2, 11βH,13-dihydroestafietin], the IC50 with T. cruzi amastigotes (Trypanosoma cruzi) was determined as 83 µg/mL (≈ 334 µM). Moreover, the “Selectivity Index Amastigotes T. cruzi” value in the series with T. cruzi amastigotes stood at 2.0. Further, in series [1], 1.3 µg/mL (≈ 5.24 µM) corresponded to half-maximal inhibition (IC50) and the “Selectivity Index Promastigotes L. braziliensis” value came out at 126.6. Besides, the “toxicity on mammalian cells (in words)” value in the series with Vero cells is “low toxicity”. For the same molecule, the CC50 at 24 h in series [3] turned out to be 165 µg/mL (≈ 663 µM). Also, in series [2], the IC50 amounted to 97.1 µg/mL (≈ 391 µM), the “Selectivity Index Trypomastigotes T. cruzi” value was found to be 1.7 and the “activity against the infective form of T. cruzi compared with estafietin (in words)” value (from here on “activity … compared with estafietin (in words)”) is “less active”.
On to `C=C1C(=O)O[C@@H]2C3C(C[C@H]4O[C@@]34C)C3(CC[C@@H]12)CO3` (stereo partly shown) [Compound 3, epoxyestafietin], for which the inhibition (usually the share of the control response that was lost under treatment) at 5 µg/mL in the series on T. cruzi amastigotes (Trypanosoma cruzi, Vero, at a concentration of 5.0 µg/mL, read-out: percentage of inhibition of T. cruzi amastigotes) is > 75%. The IC50 in the series on T. cruzi amastigotes (Trypanosoma cruzi) is 2 µg/mL (≈ 7.62 µM). Also, the “Selectivity Index Amastigotes T. cruzi” value in the series on T. cruzi amastigotes was 4.0. Further, in series [1], the IC50 is 7.8 µg/mL (≈ 29.7 µM) and the “Selectivity Index Promastigotes L. braziliensis” value is listed as 1.0. Further, the CC50 at 24 h in series [3] came out at 8.1 µg/mL (≈ 30.9 µM). Also, in series [2], the IC50 was determined as 18.7 µg/mL (≈ 71.3 µM) and the “Selectivity Index Trypomastigotes T. cruzi” value is listed as 0.4.
On to `C=C1CCC2C(COC)C(=O)OC2C2C1CC1OC12C` (stereo not shown) [Compound 4, 11βH,13-methoxyestafietin], for which the IC50 with T. cruzi amastigotes (Trypanosoma cruzi) was 30.5 µg/mL (≈ 110 µM). Further, the “Selectivity Index Amastigotes T. cruzi” value with T. cruzi amastigotes is 10.3. Besides, half-maximal inhibition in series [1] (IC50) was put at 48.7 µg/mL (≈ 175 µM). Besides, in the series with Vero cells, the “toxicity on mammalian cells (in words)” value is recorded as “low toxicity; also recorded: not toxic”. For the same molecule, the CC50 at 24 h in series [3] came to 316 µg/mL (≈ 1130 µM). Besides, in series [2], the IC50 is > 100 µg/mL, the “Selectivity Index Trypomastigotes T. cruzi” value is reported as 3.1 and the “activity … compared with estafietin (in words)” value is “less active”.
In the case of `C=C1CCC2C(CC#N)C(=O)OC2C2C1CC1OC12C` (stereo not shown) [Compound 5, 11βH,13-cianoestafietin], the IC50 in the series on T. cruzi amastigotes (Trypanosoma cruzi) was 99 µg/mL (≈ 362 µM). The “Selectivity Index Amastigotes T. cruzi” value in the series on T. cruzi amastigotes came to 1.3. Moreover, in series [1], the IC50 is 51.8 µg/mL (≈ 190 µM) and the “Selectivity Index Promastigotes L. braziliensis” value is 2.7. Also, the “toxicity on mammalian cells (in words)” value with Vero cells is “low toxicity”. Also, in series [3], the CC50 at 24 h was found to be 134 µg/mL (≈ 489 µM). Besides, in series [2], the IC50 was 78.1 µg/mL (≈ 286 µM), the “Selectivity Index Trypomastigotes T. cruzi” value is listed as 1.7 and the “activity … compared with estafietin (in words)” value is “inactive”.
